Results published in patent US8822447B2, “Indazole compounds useful as ketohexokinase inhibitors” (Janssen Pharmaceutica NV, priority 2010, dated 2014).
Where a name gives a salt, the structure may show the parent alone.

Target: KHK (Homo sapiens (Human), UniProt P50053)
Experiment: In Vitro KHK Enzyme Assay (HTMS);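 note: primary screen measuring inhibition of KHK-catalysed conversion of D-fructose into fructose 1-phosphate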
Assay type: biochemical
Details: 200 μM fructose, 100 μM ATP, 2 nM KHK, 60 min at 25° C.; Fructose-1-P detected by high throughput mass spectrometry
Procedure: An enzymatic assay was developed to measure KHK-mediated conversion of D-fructose to Fructose-1-P (F-1-P) using High Throughput Mass Spectroscopy (HTMS) as a means of product detection. This assay served as a primary screen to evaluate the ability to inhibit KHK enzyme activity and it has been adapted to high throughput mass spectrometry (HTMS, BioTrove RapidFire™) format for higher throughput.
The compounds to be tested were dosed in 12-points concentration from 511 μM to 0.5 μM. […] The assay was carried out in 384-well plate format.

Chain of KHK (P50053 whole entry): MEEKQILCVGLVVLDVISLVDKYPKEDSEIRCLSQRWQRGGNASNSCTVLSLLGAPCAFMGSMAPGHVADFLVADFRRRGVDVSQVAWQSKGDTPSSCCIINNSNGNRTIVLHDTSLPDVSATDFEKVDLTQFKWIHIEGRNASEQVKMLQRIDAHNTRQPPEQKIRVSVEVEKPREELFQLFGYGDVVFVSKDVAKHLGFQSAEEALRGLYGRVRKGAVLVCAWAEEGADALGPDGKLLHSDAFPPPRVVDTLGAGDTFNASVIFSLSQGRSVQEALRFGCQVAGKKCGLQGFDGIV

| SMILES | IC50 [µM] |
| --- | --- |
| CSc1nn(-c2cccc(C)c2)c2cc(N3CCNCC3)ccc12 [Compound 118, 3-Methylsulfanyl-6-piperazin-1-yl-1-m-tolyl-1H-indazole] | 4.12 |
| CSc1nn(-c2ccccc2)c2cc(C(O)c3ccncc3)ccc12 (centres unmarked) [Compound 137, (3-Methylsulfanyl-1-phenyl-1H-indazol-6-yl)-pyridin-4-yl-methanol] | > 2 |
| CCc1nn(-c2ccccc2)c2cc(N3CCN(C)CC3)ccc12 [Compound 54, 3-Ethyl-6-(4-methylpiperazin-1-yl)-1-phenyl-1H-indazole] | 4.52 |
| Cc1nn(-c2ccccc2)c2cc(N3CCN(C(C)C)CC3)ccc12 [Compound 70, 6-(4-Isopropylpiperazin-1-yl)-3-methyl-1-phenyl-1H-indazole formic acid salt] | 14.7 |
| CCc1nn(-c2ccccc2)c2cc(N3CC4CNCC4C3)ccc12 (centres unmarked) [Compound 50, 3-Ethyl-6-(hexahydropyrrolo[3,4-c]pyrrol-2(1H)-yl)-1-phenyl-1H-indazolehydrochloride] | 5.36 |
| CSc1nn(-c2ccccc2)c2cc(C=Cc3ccncc3)ccc12 [Compound 154, 3-Methylsulfanyl-1-phenyl-6-(2-pyridin-4-yl-vinyl)-1H-indazole] | > 10 |
| CSc1nn(-c2ccccc2)c2cc(N3CCN(C(=O)c4ccccn4)CC3)ccc12 [Compound 30] | 16.4 |
| COc1ccc(-n2nc(SC)c3ccc(C(=O)c4ccc5ncn(C)c5c4)cc32)cc1 [Compound 173, [1-(4-Methoxy-phenyl)-3-methylsulfanyl-1H-indazol-6-yl]-(3-methyl-3H-benzoimidazol-5-yl)-methanone] | > 10 |
| CSc1nn(-c2ccccc2)c2cc(-c3ccncc3)ccc12 [Compound 164, 3-Methylsulfanyl-1-phenyl-6-pyridin-4-yl-1H-indazole] | > 10 |
| CSc1nn(-c2ccccc2)c2cc(N3CCN(CC4CCNC4)C3=O)ccc12 (centres unmarked) [Compound 27, 1-(3-(Methylthio)-1-phenyl-1H-indazol-6-yl)-3-(pyrrolidin-3-ylmethyl)imidazolidin-2-one hydrochloride] | 5.17 |
| CSc1nn(-c2ccccc2)c2cc(C(=O)C(=O)N3CCNCC3)ccc12 [Compound 168, 1-(3-Methylsulfanyl-1-phenyl-1H-indazol-6-yl)-2-piperazin-1-yl-ethane-1,2-dione] | 4.12 |
| CCc1nn(-c2ccccc2)c2cc(N3CCNCC3)ccc12 [Compound 42, 3-Ethyl-1-phenyl-6-(piperazin-1-yl)-1H-indazole] | 0.57 |
| COc1nn(-c2ccccc2)c2cc(-c3ccc(-n4ccnc4)cc3)ccc12 [Compound 79, 6-(4-(1H-Imidazol-1-yl)phenyl)-3-methoxy-1-phenyl-1H-indazole] | > 30 |
| CSc1nn(-c2ccccc2)c2cc(N3CCN(C(=O)C4CCCNC4)CC3)ccc12 (centres unmarked) [Compound 16, 4-(3-Methylsulfanyl-1-phenyl-1H-indazol-6-yl)-piperazin-1-yl]-piperidin-3-yl-methanone hydrochloride] | 2.89 |
| CSc1nn(-c2ccccc2)c2cc(N3CCN(Cc4cccnc4)CC3)ccc12 [Compound 32, 3-(Methylthio)-1-phenyl-6-(4-(pyridin-3-ylmethyl)piperazin-1-yl)-1H-indazole hydrochloride] | 6.06 |
| COc1nn(-c2ccccc2)c2cc(NC(=O)c3ccc4[nH]cnc4c3)ccc12 [Compound 80, N-(3-methoxy-1-phenyl-1H-indazol-6-yl)-1H-benzo[d]imidazole-5-carboxamide] | 4.5 |
| CCc1nn(-c2ccccc2)c2nc(C3CCN(C4CCNCC4)CC3)nc(O)c12 [Compound 95, 6-[1,4′]Bipiperidinyl-4-yl-3-ethyl-1-phenyl-1H-pyrazolo[3,4-d]pyrimidin-4-ol hydrochloride] | 11.5 |
| CSc1nn(-c2ccc(F)cc2)c2cc(C3=CCNCC3)ccc12 [Compound 139, 1-(4-Fluoro-phenyl)-3-methylsulfanyl-6-(1,2,3,6-tetrahydro-pyridin-4-yl)-1H-indazole] | 0.23 |
| CSc1nn(-c2ccccc2)c2cc(C(=O)c3ccc4nonc4c3)ccc12 [Compound 174, Benzo[1,2,5]oxadiazol-5-yl-(3-methylsulfanyl-1-phenyl-1H-indazol-6-yl)-methanone] | > 10 |
| CSc1nn(-c2cccc(F)c2)c2cc(C3=CCNCC3)ccc12 [Compound 179, 1-(3-Fluoro-phenyl)-3-methylsulfanyl-6-(1,2,3,6-tetrahydro-pyridin-4-yl)-1H-indazole] | 0.04 |
| CSc1nn(-c2ccc([N+](=O)[O-])cc2)c2cc(C3=CCNCC3)ccc12 [Compound 124, 3-Methylsulfanyl-1-(4-nitro-phenyl)-6-(1,2,3,6-tetrahydro-pyridin-4-yl)-1H-indazole] | 0.49 |

Further compounds by falling IC50, results first:

| IC50 [µM] | SMILES |
| --- | --- |
| 2.71 | Cc1nn(-c2ccccc2)c2nc(-c3ccc(N4CCNCC4)cc3)cc(O)c12 [Compound 97, 3-Methyl-1-phenyl-6-(4-piperazin-1-yl-phenyl)-1H-pyrazolo[3,4-b]pyridin-4-ol] |
| 2.68 | CSc1nn(-c2ccccc2)c2cc(NC(=O)Cc3ccncc3)ccc12 [Compound 9, N-(3-(Methylthio)-1-phenyl-1H-indazol-6-yl)-2-(pyridin-4-yl)acetamide] |
| 2.4 | CCc1nn(-c2ccccc2)c2cc(N3CCN(C4CNC4)CC3)ccc12 [Compound 44, 6-(4-(azetidin-3-yl)piperazin-1-yl)-3-ethyl-1-phenyl-1H-indazole hydrochloride] |
| 2.3 | Cc1nn(-c2ccccc2)c2cc(N3CC(N4CCNCC4)C3)ccc12 [Compound 60, 3-Methyl-1-phenyl-6-(3-(piperazin-1-yl)azetidin-1-yl)-1H-indazole hydrochloride] |
| 2.06 | CCc1nn(-c2ccccc2)c2cc(N3CCN(C4CCNC4)CC3)ccc12 (centres unmarked) [Compound 45, 3-Ethyl-1-phenyl-6-(4-(pyrrolidin-3-yl)piperazin-1-yl)-1H-indazole hydrochloride] |
| 2.03 | CSc1nn(-c2ccccc2)c2cc(N3CCN(Cc4ccncc4)CC3)ccc12 [Compound 18, 3-Methylsulfanyl-1-phenyl-6-(4-pyridin-4-ylmethyl-piperazin-1-yl)-1H-indazole Hydrochloride] |
| 1.8 | CCc1nn(-c2ccccc2)c2cc(N3CCN(C4CCNCC4)C3=O)ccc12 [Compound 49, 1-(3-Ethyl-1-phenyl-1H-indazol-6-yl)-3-(piperidin-4-yl)imidazolidin-2-one hydrochloride] |
| 1.38 | COc1nn(-c2ccccc2)c2cc(N3CCN(C4CCNCC4)CC3)ccc12 [Compound 76, 3-Methoxy-1-phenyl-6-(4-(piperidin-4-yl)piperazin-1-yl)-1H-indazole hydrochloride] |
| 0.94 | CCc1nn(-c2ccccc2)c2cc(NC(=O)c3ccc4[nH]cnc4c3)ccc12 [Compound 38, N-(3-Ethyl-1-phenyl-1H-indazol-6-yl)-1H-benzo[d]imidazole-5-carboxamide] |
| 0.92 | CSc1nn(-c2ccc(Br)cc2)c2cc(OCC3CCNCC3)ccc12 [Compound 128, 1-(4-Bromo-phenyl)-3-methylsulfanyl-6-(piperidin-4-ylmethoxy)-1H-indazole] |
| 0.89 | CSc1nn(-c2ccccc2)c2cc(NCCN3CCNCC3)ccc12 [Compound 165, (3-Methylsulfanyl-1-phenyl-1H-indazol-6-yl)-(2-piperazin-1-yl-ethyl)-amine] |
| 0.83 | COc1ccc(-n2nc(SC)c3ccc(N4CCNCC4)cc32)cc1 [Compound 122, 1-(4-Methoxy-phenyl)-3-methylsulfanyl-6-piperazin-1-yl-1H-indazole] |
| 0.7 | CSc1nn(-c2ccccc2)c2cc(NC(=O)NC3CCNCC3)ccc12 [Compound 7, 1-(3-(Methylthio)-1-phenyl-1H-indazol-6-yl)-3-(piperidin-4-yl)urea hydrochloride] |
| 0.7 | CSc1nn(-c2ccccc2)c2cc(NC(=O)C3(C)CCNCC3)ccc12 [Compound 158, 4-Methyl-piperidine-4-carboxylic acid (3-methylsulfanyl-1-phenyl-1H-indazol-6-yl)-amide] |
| 0.67 | CSc1nn(-c2ccccc2)c2cc(C(=O)C3CCNCC3)ccc12 [Compound 142, (3-Methylsulfanyl-1-phenyl-1H-indazol-6-yl)-piperidin-4-yl-methanone] |
| 0.66 | CCOc1cc(-c2ccc(N3CCN(C)CC3)cc2)nc2c1c(CC)nn2-c1ccccc1 [Compound 103, 4-Ethoxy-3-ethyl-6-[4-(4-methyl-piperazin-1-yl)-phenyl]-1-phenyl-1H-pyrazolo[3,4-b]pyridine] |
| 0.56 | CCc1nn(-c2ccccc2)c2cc(N3CCN(C4CCNCC4)CC3)ccc12 [Compound 46, 3-Ethyl-1-phenyl-6-(4-(piperidin-4-yl)piperazin-1-yl)-1H-indazole hydrochloride] |
| 0.45 | CSc1nn(-c2ccccc2)c2cc(NC(=O)NC3CCNC3)ccc12 (centres unmarked) [Compound 4, 1-(3-(Methylthio)-1-phenyl-1H-indazol-6-yl)-3-(pyrrolidin-3-yl)urea hydrochloride] |
| 0.44 | CSc1nn(-c2ccccc2)c2cc(OCC3CCNCC3)ccc12 [Compound 107, 3-Methylsulfanyl-1-phenyl-6-(piperidin-4-ylmethoxy)-1H-indazole] |
| 0.38 | CSc1nn(-c2ccccc2)c2cc(NC(=O)CCN3CCNCC3)ccc12 [Compound 132, N-(3-Methylsulfanyl-1-phenyl-1H-indazol-6-yl)-3-piperazin-1-yl-propionamide] |
| 0.3 | CSc1nn(-c2ccccc2)c2cc(N3CCN(c4ccncc4)CC3)ccc12 [Compound 29, 3-(Methylthio)-1-phenyl-6-(4-(pyridin-4-yl)piperazin-1-yl)-1H-indazole] |
| 0.26 | CSc1nn(-c2ccccc2)c2cc(NC(=O)C3CCCN3)ccc12 (centres unmarked) [Compound 13, N-(3-(Methylthio)-1-phenyl-1H-indazol-6-yl)pyrrolidine-2-carboxamide hydrochloride] |
| 0.23 | CSc1nn(-c2ccccc2)c2cc(C=CC3CCNCC3)ccc12 [Compound 141, 3-Methylsulfanyl-1-phenyl-6-(2-piperidin-4-yl-vinyl)-1H-indazole] |
